Values quoted from earlier work, collected in patent publication US20080152724A1, “TREATMENT OF PER[…] AN […] RELEASE IODINE” (priority 2006, published 2008).

System: test strains
Conditions: all of the test strains; after 30 seconds of exposure

Q: With `N=C(NCCCCCCNC(=N)NC(=N)Nc1ccc(Cl)cc1)NC(=N)Nc1ccc(Cl)cc1.O=C(O)[C@H](O)[C@@H](O)[C@H](O)[C@H](O)CO.O=C(O)[C@H](O)[C@@H](O)[C@H](O)[C@H](O)CO` [chlorhexidine gluconate] as the molecule, how does the bactericidal activity read?
A: The bactericidal activity was “residual bacteria were observed in most species”.
